Reference: patent publication US8748497B2, “Optimized fluorocarbon emulsions for blood substitutes and other therapeutic uses” (Alliance Pharmaceutical Corp., priority 2006, dated 2014)
Read-outs that look alike come from different tables or passages of the source.

Tests used:
[1] = pharmacokinetics in subjects undergoing noncardiac surgical procedures; assay type: in vivo, human; settings: noncardiac surgery; for AUC(0-inf) / clearance / Cmax / half-life: human, whole blood; for clearance: read-out: CL (whole blood clearance) (converted); for Cmax: read-out: Cmax (maximum whole blood concentration); for half-life: read-out: T1/2 (elimination half-life) (converted)
Description: The pharmacokinetics of PFOB and PFDB were determined after the administration of the fluorocarbon emulsion of Example VI to subjects undergoing total hip replacement or spinal surgery or a variety of urologic and gynaecologic procedures including radical retropubic prostatectomy, radical hysterectomy, cystectomy and combined procedures. Human subjects in one study received either 0.9 g PFC/kg or 1.8 g PFC/kg of the fluorocarbon formulation of Example VI and those in a second study received 1.8 g PFC/kg of the fluorocarbon formulation of Example VI.

[2] = pharmacokinetics in subjects undergoing CABG surgery with hypothermic CPB; assay type: in vivo, human
Description: The pharmacokinetics of PFOB and PFDB were determined after the administration of the fluorocarbon formulation taught in Example VI to human subjects undergoing coronary artery bypass grafting or CABG surgery with hypothermic cardiopulmonary bypass. In group 1 and in group 2, human subjects received the fluorocarbon emulsion (2.7 g PFC/kg) as taught in Example VI directly into the bypass oxygenator after being put on bypass but before cooling was begun. In group 4, subjects received 2.7 g PFC/kg of the fluorocarbon emulsion of Example VI directly into the bypass oxygenator either prior to aortic cannulation or after being put on bypass, but before cooling was begun.

[3] = four compartment model; cited from earlier work
[4] = pharmacokinetics in blood after single intravenous administration of the emulsion of Ex. VI; assay type: in vivo, Sprague Dawley rats; settings: for half-life: Sprague-Dawley, rat, iv; for half-life / AUC(o-last) / AUC(o-∞) / Cl: blood; for Vd: terminal phase
From the text: (§1) This study was designed to assess the pharmokinetics and tissue distribution of PFOB and PFDB following a single intravenous administration of the emulsion of Ex. VI at various time intervals at dose levels of 1.8 and 3.6 g PFC/k in male and female Sprague Daley rats, aged 7-9 weeks, weight between 190-267 grams. For pharmacokinetics, 160 rats were divided into 20 groups (N=4 rats/sex/dose/time interval) and for tissue distribution, 156 rats were divided into 26 groups (n=3 rats/sex/dose/time interval). The time intervals for pharmacokinetics blood sampling were 0.083, 0.5, 1, 3, 6, 12, 36, 48, 72 and 96 hours. The time intervals for tissue sampling was predose, 24 hours, 1, 2, 4, 8, 13, 17, 21, 26, 39, 52 and 72 weeks.
Six pharmacokinetic parameters were determined following a single intravenous dose of 1.8 gPFC/kg or 3.6 g PFC/kg in both the male and female rats as shown in the tables below.

[5] = tissue distribution after single intravenous administration of the emulsion of Ex. VI, GC headspace; assay type: in vivo, Sprague Dawley rats; settings: 24 hours; for concentration at 24 h: Sprague-Dawley, rat, intravenous
From the text: as §1
26 groups (N=3 rats/sex/group). Prior to euthanasia, body weights were recorded. At designated times (see below), rats were anesthetized with METOFANE® and esanguinated via the abdominal artery. Blood was collected into syringes containing EDTA and transferred into sealed plastic containers for storage at approximately −20° C. until analyzed. Resultant data were included in the determination of pharmacokinetic parameters. The following tissues were collected from each rat and placed in sealed containers and stored frozen at −20° C. Prior to freezing, blood and tissue samples were processed for analysis. PFOB and PFDB were quantified in blood and tissues using a GC headspace method validated by Oread. The method was validated in the liver and then cross validated to all other tissues, blood, and serum. The tissues collected and analyzed include heart, lungs, abdominal fat, spleen, liver, mesenteric lymph nodes, kidneys, adrenals, testes, ovaries, uterus, whole brain, eyes, skeletal muscle, femoral bone marrow, and gastrointestinal tract.
The concentration of PFOB and PFDB was determined in the tissues in both sexes at 12 time points. For the males, this was a total of 360 individual results including blood. There were 24 additional results for the female.

[6] = Phase 1 pharmacokinetics in healthy human volunteers; assay type: in vivo; settings: human, blood; for AUC(0-t) / half-life: intravenous; for AUC(0-t): read-out: AUC (0-336); for half-life: read-out: t1/2. 12 h (initial elimination half-life within the first 12 h post dose) (converted); for Cmax: iv, healthy volunteers
Description: Two randomised, controlled, double-blind, parallel group, Phase 1 studies were conducted in healthy human patients with the fluorocarbon emulsion made according to Example VI. Blood and expired air samples were analysed for PFOB and PFDB after a single intravenous dose of 1.2 or 1.8 g PFC/kg of the fluorocarbon emulsion of Example VI in healthy human volunteers to determine pharmacokinetics. Blood samples were collected up to 336 hours post-dosing.

[7] = female rats, 1.8 g PFC/kg single iv
[8] = female rats, 3.6 g PFC/kg single iv
[9] = male rats, 1.8 g PFC/kg single iv
[10] = male rats, 3.6 g PFC/kg single iv
[11] = 1.2 g PFC/kg, Table VII, 1.2 g PFC/kg
[12] = 1.2 g PFC/kg, Table VIII, 1.2 g PFC/kg
[13] = 1.8 g PFC/kg, Table VII, 1.8 g PFC/kg
[14] = 1.8 g PFC/kg, Table VIII, 1.8 g PFC/kg

AUC(0-inf) ([1]; 0.9 g PFC/kg): 13300 µg·h/mL
clearance ([1]; 0.9 g PFC/kg): 1.61 mL/min/kg
Cmax ([1]; 0.9 g PFC/kg): 7680 µg/mL
half-life ([1]; 0.9 g PFC/kg): 2.36 ± 3.06 h
AUC(0-inf) ([1]; 1.8 g PFC/kg): 57400 µg·h/mL
clearance ([1]; 1.8 g PFC/kg): 0.703 mL/min/kg
Cmax ([1]; 1.8 g PFC/kg): 17500 µg/mL
half-life ([1]; 1.8 g PFC/kg): 3.77 ± 2.69 h
whole blood concentration relative to PFDB [1]: approximately 30 fold
whole blood concentration relative to PFDB [2]: ~30 fold
AUC(0-inf) ([2]; human, whole blood, other: directly into the bypass oxygenator, 2.7 g PFC/kg): 300000 µg·h/mL
clearance ([2]; human, whole blood, other: directly into the bypass oxygenator, 2.7 g PFC/kg, read-out: CL (whole blood clearance) (converted)): 0.165 mL/min/kg
Cmax ([2]; human, whole blood, other: directly into the bypass oxygenator, 2.7 g PFC/kg, read-out: Cmax (maximum whole blood concentration)): 30300 µg/mL
half-life ([2]; human, whole blood, other: directly into the bypass oxygenator, 2.7 g PFC/kg, read-out: T1/2 (elimination half-life) (converted)): 7.65 ± 2.71 h
half-life ([4]; both sexes, 1.8 g/kg, male and female rats, 1.8 g PFC/kg, read-out: average terminal t1/2 (converted)): ~73 h
half-life ([4]; both sexes, 3.6 g/kg, male and female rats, 3.6 g PFC/kg, read-out: average terminal t1/2 (converted)): 181 h
AUC(o-last) [4, 7]: 126.86 mg·h/g
AUC(o-∞) [4, 7]: 126.89 mg·h/g
Cl [4, 7]: 5.41 g/h/kg
Vd [4, 7]: 1605.67 g/kg
AUC(o-last) [4, 8]: 541.55 mg·h/g
AUC(o-∞) [4, 8]: 541.58 mg·h/g
Cl [4, 8]: 6.70 g/h/kg
Vd [4, 8]: 1182.97 g/kg
half-life ([4]; female, 1.8 g/kg, female rats, 1.8 g PFC/kg single iv, last 3 or 4 data points, read-out: T1/2 (converted)): 78.5 h
half-life ([4]; female, 3.6 g/kg, female rats, 3.6 g PFC/kg single iv, last 3 or 4 data points, read-out: T1/2 (converted)): 123 h
AUC(o-last) [4, 9]: 122.65 mg·h/g
AUC(o-∞) [4, 9]: 122.69 mg·h/g
Cl [4, 9]: 6.01 g/h/kg
Vd [4, 9]: 1443.18 g/kg
AUC(o-last) [4, 10]: 566.13 mg·h/g
AUC(o-∞) [4, 10]: 566.15 mg·h/g
Cl [4, 10]: 8.93 g/h/kg
Vd [4, 10]: 2191.83 g/kg
half-life ([4]; male, 1.8 g/kg, male rats, 1.8 g PFC/kg single iv, last 3 or 4 data points, read-out: T1/2 (converted)): 68.2 h
half-life ([4]; male, 3.6 g/kg, male rats, 3.6 g PFC/kg single iv, last 3 or 4 data points, read-out: T1/2 (converted)): 238 h
concentration in the liver and bone marrow ([5]; all four groups): greater than 10 mg/g
percent of dose in liver ([5]; female rats, 1.8 g PFC/kg): approximately 63%
percent of dose in spleen ([5]; female rats, 1.8 g PFC/kg): approximately 4%
percent of dose in liver ([5]; female rats, 3.6 g PFC/kg): approximately 53%
percent of dose in spleen ([5]; female rats, 3.6 g PFC/kg): < 1%
concentration at 24 h ([5]; female, females 1.8 g PFC/kg, all tissues except the blood, eyes, and skeletal muscle, read-out: concentration in tissues): > 100000 ng/g
concentration at 24 h ([5]; female, females 3.6 g/kg of PFC, all tissues, read-out: concentration in tissues): > 100000 ng/g
percent of dose in liver ([5]; male rats, 1.8 g PFC/kg): approximately 59%
percent of dose in spleen ([5]; male rats, 1.8 g PFC/kg): < 1%
percent of dose in liver ([5]; male rats, 3.6 g PFC/kg): approximately 69%
concentration at 24 h ([5]; male, 3.6 g PFC/kg, males 3.6 PFC/kg, all tissues, read-out: concentration in tissues): > 100000 ng/g
concentration at 24 h ([5]; male, males 1.8 g/kg of PFC, all tissues except the eyes and skeletal muscles, read-out: absolute concentration in tissues): > 100000 ng/g
AUC(0-t) [6, 11]: 10.2 µg·h/mL
half-life [6, 11]: 6.55 ± 2.06 h
AUC(0-t) [6, 12]: 79200 µg·h/mL
half-life [6, 12]: 5.41 h
AUC(0-t) [6, 13]: 285000 µg·h/mL
half-life [6, 13]: 10.5 ± 2.1 h
AUC(0-t) [6, 14]: 239000 µg·h/mL
half-life [6, 14]: 7.66 h
Cmax ([6]; 1.2 g PFC/kg, Table VII, 1.2 g PFC/kg single iv): 13600 µg/mL
Cmax ([6]; 1.2 g PFC/kg, Table VIII, 1.2 g PFC/kg single iv): 12600 µg/mL
Cmax ([6]; 1.8 g PFC/kg, Table VII, 1.8 g PFC/kg single iv): 22700 µg/mL
Cmax ([6]; 1.8 g PFC/kg, Table VIII, 1.8 g PFC/kg single iv): 21800 µg/mL
Structure (SMILES): FC(F)(F)C(F)(F)C(F)(F)C(F)(F)C(F)(F)C(F)(F)C(F)(F)C(F)(F)Br [PFOB, perfluorooctyl bromide]
rate constant k10 [3]: ≈ 0.000 hr^−1
rate constant k12 [3]: ≈ 0.04 hr^−1
rate constant k24 [3]: ≈ 0.006 hr^−1
rate constant k34 [3]: ≈ 0.002 hr^−1
rate constant k40 [3]: ≈ 0.07 hr^−1
rate constant k42 [3]: ≈ 0.002 hr^−1
